# “And” between values parts separate entries of the source, which are not always exact repeats. Identical values can stand only once.
# Legend:
# RAW 264.7 cells = assay: Assay of kinase from cell lysate (GFP-cJun phosphorylation, TR-FRET); format: cell-based, mouse; settings: duplicates
# Experimental: RAW 264.7 cells (mouse macrophage cell line) were serum starved overnight and stimulated (or not) with 10 ug/ml of Anisomycin for 15 minutes prior to lysates being prepared. Lysates were prepared following a standard protocol, e.g., as described in the Kinase Activity Assay Kit protocol, Rev. A1 Dec. 9, 2005, Catalog#KNZ0031, BioSource (California). The protocol is outlined below.
# When using the Omnia™ Lysate Assay to determine MAPKAP-K2 activity in cell lysates, the following procedure for sample preparation may be used. This protocol has been successfully applied to several cell lines of human and mouse origin. • 1. Thaw Omnia Cell Extraction Buffer (BioSource, California) on ice. • 2. Set up and stimulate cells as desired. • 3. Collect cells in cold PBS by centrifugation (for non-adherent cells) or scraping from culture plates (for adherent cells). • 4. Centrifuge the cells at 1,500 rpm for 5 minutes at 4° C. • 5. Aspirate the PBS. • 6. Resuspend the cell pellet in Omnia Cell Extraction Buffer and transfer the lysate to a 1.5 mL microcentrifuge tube. The volume of Omnia Cell Extraction Buffer depends on the cell number and expression level of MAPKAP-K2. The optimal protein concentration of lysate should be in the range of 5 to 10 mg/mL. Add an appropriate amount of protease and phosphatase inhibitor (typically provided as a 100× stock solution) before using. Under these conditions, using 0.005 mL (25-50 μg) of the clarified cell extract will be sufficient for measurement of MAPKAP-K2 activity. • 7. Lyse the cells at 4° C. for 30 minutes on a rotator. Whole cell extract can then be briefly sonicated or put through a syringe and needle if desired. • 8. Centrifuge at 13,000 rpm for 20-30 minutes at 4° C. • 9. Transfer the clarified cell extracts to clean microcentrifuge tubes. • 10. The clarified cell extract should be stored at −80° C. until ready for analysis. Avoid repeated freeze-thaw cycles. In preparation for performing the assay, allow the samples to thaw on ice. Mix well prior to analysis.
# Lysate was serially diluted in buffer and 5 uL aliquots were assayed against 400 nM GFP-cJun in assay buffer containing 100 uM ATP. Assays were stopped by addition of EDTA and antibody, with a final anti-phospho cJun antibody concentration of 2 nM. The plate was read after 1 hour incubation and the data collected. Samples were performed in duplicates.
# [1] = target: T1, Epidermal Growth Factor Receptor (EGFR) Tyrosine Kinase (Homo sapiens, UniProt P00533); assay: EGFR kinase multiplex FP/TR-RET assay (LOPAC screen and follow-up); format: biochemical; settings: re-assayed, two-fold dilutions
# T1 construct: purchased Invitrogen P2628
# T1 sequence (P00533 25-1210): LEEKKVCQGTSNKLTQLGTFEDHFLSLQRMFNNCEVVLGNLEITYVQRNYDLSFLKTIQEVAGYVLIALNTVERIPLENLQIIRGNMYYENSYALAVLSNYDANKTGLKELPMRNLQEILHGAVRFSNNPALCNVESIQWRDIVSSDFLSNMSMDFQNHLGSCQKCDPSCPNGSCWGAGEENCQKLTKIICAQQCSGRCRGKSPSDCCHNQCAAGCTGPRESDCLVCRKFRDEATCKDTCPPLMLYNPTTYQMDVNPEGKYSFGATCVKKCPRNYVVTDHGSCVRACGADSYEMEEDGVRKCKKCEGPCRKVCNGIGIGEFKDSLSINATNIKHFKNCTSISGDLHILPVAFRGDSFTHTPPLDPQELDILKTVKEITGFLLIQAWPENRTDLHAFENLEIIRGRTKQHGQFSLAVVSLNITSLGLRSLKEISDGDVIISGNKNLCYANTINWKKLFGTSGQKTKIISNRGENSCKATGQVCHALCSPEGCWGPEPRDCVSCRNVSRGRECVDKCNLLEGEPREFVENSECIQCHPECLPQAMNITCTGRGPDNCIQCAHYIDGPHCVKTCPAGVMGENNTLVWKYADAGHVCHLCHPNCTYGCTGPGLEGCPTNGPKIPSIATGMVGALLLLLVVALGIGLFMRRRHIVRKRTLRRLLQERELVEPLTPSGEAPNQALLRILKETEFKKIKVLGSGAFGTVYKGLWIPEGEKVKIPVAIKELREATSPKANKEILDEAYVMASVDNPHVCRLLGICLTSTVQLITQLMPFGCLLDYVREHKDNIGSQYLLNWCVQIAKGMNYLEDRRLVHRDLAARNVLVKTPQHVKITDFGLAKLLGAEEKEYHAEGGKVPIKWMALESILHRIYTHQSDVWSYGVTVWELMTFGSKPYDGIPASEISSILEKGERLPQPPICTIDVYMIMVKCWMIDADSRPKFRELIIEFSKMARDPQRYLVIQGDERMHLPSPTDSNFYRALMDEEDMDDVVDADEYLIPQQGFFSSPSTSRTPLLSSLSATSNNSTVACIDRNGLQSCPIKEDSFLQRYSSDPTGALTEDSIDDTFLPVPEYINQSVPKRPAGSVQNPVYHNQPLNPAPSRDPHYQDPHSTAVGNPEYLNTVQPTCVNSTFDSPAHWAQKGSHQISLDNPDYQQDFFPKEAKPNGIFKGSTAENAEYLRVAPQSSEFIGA
# [2] = Precipitation of compounds seen in the EGFR kinase assay; format: physicochemical; settings: EGFR kinase assay conditions
# UCH-L3 = target: T2, UCH-L3 (Homo sapiens, UniProt P15374); assay: Deubiquitination TR-FRET assay with GFP-Ub-Tb, inhibitor titration; format: biochemical; settings: 0.1 nM UCH-L3 and 10 nM GFP-Ub-Tb
# T2 construct: purchased Boston Biochem E-325
# T2 sequence (P15374 1-230): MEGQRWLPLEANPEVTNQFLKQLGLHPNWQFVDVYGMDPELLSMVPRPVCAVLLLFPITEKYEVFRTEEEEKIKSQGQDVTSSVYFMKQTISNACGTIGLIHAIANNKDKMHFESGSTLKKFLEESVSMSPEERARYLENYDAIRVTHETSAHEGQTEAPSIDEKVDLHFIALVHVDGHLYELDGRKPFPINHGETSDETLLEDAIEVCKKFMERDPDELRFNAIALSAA
compound,measurement,setting,value
COc1ccc(C[C@H]2NC[C@H](O)[C@H]2OC(C)=O)cc1 [Anisomycin],"TR-FRET value of lysate, +Anisomycin","RAW 264.7 cells; 10 ug/ml Anisomycin 15 minutes, 0.003051758 % Cell Lysate in 5 uL Addition",0.1308 and 0.1312
same,"TR-FRET value of lysate, +Anisomycin","RAW 264.7 cells; 10 ug/ml Anisomycin 15 minutes, 0.006103516 % Cell Lysate in 5 uL Addition",0.1395 and 0.1339
same,"TR-FRET value of lysate, +Anisomycin","RAW 264.7 cells; 10 ug/ml Anisomycin 15 minutes, 0.01220703 % Cell Lysate in 5 uL Addition",0.1419 and 0.1424
same,"TR-FRET value of lysate, +Anisomycin","RAW 264.7 cells; 10 ug/ml Anisomycin 15 minutes, 0.02441406 % Cell Lysate in 5 uL Addition",0.1479 and 0.1534
same,"TR-FRET value of lysate, +Anisomycin","RAW 264.7 cells; 10 ug/ml Anisomycin 15 minutes, 0.04882813 % Cell Lysate in 5 uL Addition",0.1572 and 0.1894
same,"TR-FRET value of lysate, +Anisomycin","RAW 264.7 cells; 10 ug/ml Anisomycin 15 minutes, 0.09765625 % Cell Lysate in 5 uL Addition",0.2161 and 0.2286
same,"TR-FRET value of lysate, +Anisomycin","RAW 264.7 cells; 10 ug/ml Anisomycin 15 minutes, 0.1953125 % Cell Lysate in 5 uL Addition",0.2474 and 0.3145
same,"TR-FRET value of lysate, +Anisomycin","RAW 264.7 cells; 10 ug/ml Anisomycin 15 minutes, 0.390625 % Cell Lysate in 5 uL Addition",0.2813 and 0.3421
same,"TR-FRET value of lysate, +Anisomycin","RAW 264.7 cells; 10 ug/ml Anisomycin 15 minutes, 0.78125 % Cell Lysate in 5 uL Addition",0.3722 and 0.4739
same,"TR-FRET value of lysate, +Anisomycin","RAW 264.7 cells; 10 ug/ml Anisomycin 15 minutes, 1.5625 % Cell Lysate in 5 uL Addition",0.4554 and 0.5687
same,"TR-FRET value of lysate, +Anisomycin","RAW 264.7 cells; 10 ug/ml Anisomycin 15 minutes, 3.125 % Cell Lysate in 5 uL Addition",0.5703 and 0.707
same,"TR-FRET value of lysate, +Anisomycin","RAW 264.7 cells; 10 ug/ml Anisomycin 15 minutes, 6.25 % Cell Lysate in 5 uL Addition",0.5917 and 0.7878
same,"TR-FRET value of lysate, +Anisomycin","RAW 264.7 cells; 10 ug/ml Anisomycin 15 minutes, 12.5 % Cell Lysate in 5 uL Addition",0.7483 and 0.8384
same,"TR-FRET value of lysate, +Anisomycin","RAW 264.7 cells; 10 ug/ml Anisomycin 15 minutes, 25 % Cell Lysate in 5 uL Addition",0.8474 and 0.8571
same,"TR-FRET value of lysate, +Anisomycin","RAW 264.7 cells; 10 ug/ml Anisomycin 15 minutes, 50 % Cell Lysate in 5 uL Addition",0.9027 and 0.9226
same,"TR-FRET value of lysate, +Anisomycin","RAW 264.7 cells; cells stimulated with 10 ug/ml Anisomycin 15 minutes, 100 % Cell Lysate in 5 uL Addition",0.9796 and 0.9768
Oc1ccccc1O [Pyrocatechol],inhibitor on re-assay,[1],neither was seen to be an inhibitor
O=C1Nc2ccc(I)cc2/C1=C/c1cc(Br)c(O)c(Br)c1 [GW5074],precipitation in the assay,[2],seen to precipitate
NC(=O)c1cc(N2CC2)c([N+](=O)[O-])cc1[N+](=O)[O-] [CB-1954],inhibitor on re-assay,[1],neither was seen to be an inhibitor
ubiquitin aldehyde,IC50,UCH-L3,200 pM
CC(C)[C@@]1(NC(=O)[C@@H]2C=C3c4cccc5[nH]cc(c45)C[C@H]3N(C)C2)O[C@@]2(O)[C@@H]3CCCN3C(=O)[C@H](Cc3ccccc3)N2C1=O [Ergocristine],precipitation in the assay,[2],seen to precipitate

# Source: US8642256B2, “Kinase and ubiquination assays” (Life Technologies Corporation, priority 2005, dated 2014)
